From patent US5668134A, “Method for preventing or reducing photosensitivity and/or phototoxicity reactions to medications” (priority 1994, dated 1997)
Where a name gives a salt, the structure may show the parent alone.

Assays:
Serum protein binding = type: in vitro ADME
[1] = system: Staphylococcus saprophyticus; assay: Activity in vitro and in clinical infections; type: cell-based
Haemophilus influenzae = assay: Activity in vitro and in clinical infections; type: cell-based
[2] = system: Moraxella (Branhamella) catarrhalis; assay: Activity in vitro and in clinical infections; type: cell-based
[3] = Example 1: general pharmacokinetics in volunteers; type: in vivo, human
Method: In 6 fasting healthy male volunteers, approximately 95% to 98% of a single oral dose of lomefloxacin HCl was absorbed. […] Mean plasma concentration increased proportionally between 100 and 400 mg as shown below.
In 6 healthy male volunteers administered 400 mg of lomefloxacin HCl on an empty stomach q.d. for 7 days, the following mean pharmacokinetic parameter values were obtained: [formula]
The elimination half-life in 8 subjects with normal renal function was approximately 8 hours. At 24 hours post dose, subjects with normal renal function receiving single doses of 200 or 400 mg lomefloxacin HCl had mean plasma lomefloxacin HCl concentrations of 0.10 and 0.24 μg/ml, respectively. Steady-state concentrations were achieved within 48 hours of initiating therapy with once-a-day dosing.
Approximately 65% of an orally administered dose of lomefloxacin HCl was excreted in the urine as unchanged drug in patients with normal renal function. Following a 400 mg dose of lomefloxacin HCl administered q.d. for 7 days, the mean urine concentration was in excess of 300 μg/ml 4 hours post dose. The mean urine concentration exceeded 35 μg/ml for at least 24 hours after dosing.
The urinary excretion of lomefloxacin HCl was virtually complete within 72 hours after cessation of dosing, with approximately 65% of the dose being recovered as parent drug and 9% as its glucuronide metabolite.

[4] = Food effect on pharmacokinetics; type: in vivo, human
patients = assay: Example 3: multicenter comparative safety and efficacy study, photosensitivity; type: in vivo, human; conditions: 400 mg x 7 days
Method: A double blind, randomized, parallel group, three-arm clinical study concerning the photosensitivity reactions caused by lomefloxacin HCl was the multicenter comparative safety and efficacy study which was conducted in Sweden. 400 mg of lomefloxacin HCl was given once a day (q.d.) for either three days or seven days. 703 patients were enrolled in this study, before newly-raised awareness of photosensitivity reactions associated with lomefloxacin HCl.
However, about one year into the study, on Feb. 2, 1989, a letter was sent out to each of the study investigators regarding the possible risks of lomefloxacin HCl photosensitivity reactions. This information was again communicated to the study investigators at an Investigator's Meeting which was held on Jun. 8, 1989. The above-describedwarnings to study investigators apparently may have not been shared with the patients taking part in the study because photosensitivity rates for this study were reported as for […] as 10% for lomefloxacin HCl 400 mg×7 days.

[5] = system: skin of healthy volunteers; set-up: species or system human; conditions: in vivo
Method: This study describes a randomized, single site, double-blind, two treatment, two period, two sequence, cross-over clinical pharmacology study which was performed according to FDA regulations in 27 healthy normal volunteers with fair skin that could easily burn when exposed to sunlight, to assess the photosensitivity and/or phototoxicity potential of oral 400 mg lomefloxacin hydrochloride (MAXAQUIN®) administered once daily for 4 consecutive days either in the morning (morning dose group), as described hereinbelow, or in the early evening (evening dose group), as described hereinbelow. Irradiation and evaluation of irradiated sites began at 2 hours after the final morning dose of lomefloxacin HCl for the morning dosing group, and began 16 hours after the final evening dose of lomefloxacin HCl for the evening dosing group.
"Baseline MED" was defined as the lowest dose of UVA radiation alone, or UVA and UVB radiation, that produced a minimal perceptible erythema filling a 1 cm^2 patch of skin 24 hours post radiation.
"Delayed MED" was defined as the lowest dose of UVA radiation alone, or UVA and UVB radiation, that produced a minimal perceptible erythema filling a 1 cm^2 patch of skin, when testing the area 24, 48 and 72 hours post radiation.
"Immediate MED" was defined as the lowest dose producing minimal perceptible erythema filling a 1 cm^2 patch of skin when testing the area 0, 3, and 6 hours post radiation.
After all baseline procedures, including determination of baseline MEDUVA and MEDUVA+UVB values 24 hours post-radiation, were completed, all subjects started Study Day 1 of Treatment Period 1 with an evening dose of study medication, and completed this phase of the treatment regime with a morning dose of study medication on Study Day 5. Two hours after the final morning dose, and 16 hours after the last evening dose, a randomly selected site composed of six patches of skin, each with an area of one square centimeter, on the back or buttock of the subject was irradiated with incremental amounts of energy. Immediately following irradiation (0 hour), and at 3, 6, 24, 48 and 72 hours following irradiation, each skin patch area was evaluated to determine the MEDs, and assess the severity of skin reaction using a five-grade system, as described hereinbelow. The lowest of the MEDs determined at 0, 3 and 6 hours post-radiation were referred to as immediate MEDs, and the lowest of the MEDs determined at 24, 48 and 72 hours post-radiation were referred to as delayed MEDs.
The source of radiation employed was an Oriel (Santa Monica, Calif.) Xenon Arc 1000 watt solar simulator, with the following filters: WG320 filter (1 mm thick, emitting full spectrum UVA and UVB radiation), WG335 filter (3 mm thick, emitting almost exclusively UVA radiation) or UG11 filter (to filter infrared radiation).
For predrug exposure MED determination, 2 sets each with six 1 cm^2 patches on the back or buttocks were irradiated with increasing doses of UVA and UVB radiation, and UVA radiation alone, up to 7 days prior to beginning of drug treatment. With respect to UVA light source, irradiation began at 5 J/cm^2, and was increased by increments of 5 J/cm^2 using a different skin patch for each exposure. The maximum radiation dose was 30 J/cm^2. Subjects with MED greater than 30 J/cm^2 were excluded from the study. […] A different skin patch was used for each exposure.
Two hours after the administration of the last dose of Treatment Period 1 (a.m. dose), the two randomly selected sites on each subject's back or buttocks were exposed one to UVA and UVB radiation, and one to UVA radiation alone. In order to protect the subjects from excessive radiation, as well as assess the true Minimum Erythema Dose (MED), the posttreatment irradiation doses for each subject was adjusted in accordance with their pretreatment MEDs. The following table was used to determine each subject's minimum and maximum posttreatment radiation dose: […]

[6] = Physicochemical properties of lomefloxacin HCl

In the case of `CCn1cc(C(=O)O)c(=O)c2cc(F)c(N3CCNC(C)C3)c(F)c21` (racemic) [lomefloxacin HCl, monohydrochloride salt of (±)-1-ethyl-6,8-difluoro-1,4-dihydro-7-(3-methyl-1-piperazinyl)-4-oxo-3-quinolinecarboxylic acid], the fraction unbound (Serum protein binding) is reported as roughly 0.9, the “activity against most strains” value [1] is reported as “active against most strains” and the “activity against most strains” value (Haemophilus influenzae) is reported as “active against most strains”. For the same molecule, the “activity against most strains” value [2] was “active against most strains”, the “glucuronide metabolite recovered in urine” value ([3]; human, in vivo) was 9% and the “time to steady-state concentrations” value ([3]; human, in vivo) was no more than 48 h. The “time to virtually complete urinary excretion” value ([3]; human, in vivo) was no more than 72 h, the CL renal ([3]; human, in vivo, po) was 145 mL/min and the Fa ([3]; human, in vivo, po) was 95 to 98%. For the same molecule, the Tmax ([3]; human, in vivo, po) was 0.8 to 1.4 h, the half-life ([3]; human, in vivo, po) was roughly 8 h and the drug accumulation ([3]; single daily dosing, normal renal function) was “no drug accumulation”. The “decrease of Cmax with food” value [4] was 18%, the “decrease of extent of absorption (AUC) with food” value [4] was 12% and the “delay of Tmax with food” value [4] was 41%. For the same molecule, the Tmax ([4]; human, in vivo, with food) was 2 h, the photosensitivity rate (patients) was 10% and the “MED, 0 H, mean” value [5] was 0.094 J/cm^2. The “amount of UVA+UVB radiation to give MED versus UVA alone” value [5] was “over 100 times less”, the “change of immediate MEDUVA+UVB from baseline” value [5] was “not statistically significant” and the “change of immediate and delayed MEDUVA+UVB from baseline” value [5] was “neither the changes between baseline and posttreatment immediate MEDUVA+UVB, nor between baseline and posttreatment delayed MEDUVA+UVB, were statistically significant”. The “change of immediate and delayed MEDUVA+UVB, a.m. versus p.m.” value [5] was “statistically significant difference”, the “photosensitivity with UVA plus UVB radiation” value [5] was “no increase in photosensitivity” and the solubility in alcohol [6] was “practically insoluble in alcohol”. The solubility in water [6] was “slightly soluble in water”.
